# Article PMC9098912, “Molecular basis for inhibiting human glucose transporters by exofacial inhibitors” (Nature Communications, 2022)
# “And” between values parts separate entries of the source, which are not always exact repeats. Equal values may be shown once.
# What was measured:
# [1] = target: T1, human glucose transporter GLUT1(N45T) (Homo sapiens, UniProt P11166, N45T); assay: Proteoliposome-based counterflow assay, inhibition of D-[2-3H]-glucose transport; format: biochemical; settings: GLUT1, 100 μM inhibitor; for Figure S1c: transport activity in presence of inhibitor (value1-3): three independent experiments, 100 µM
# T1 construct: made in house
# T1 sequence (P11166 1-492 N45T): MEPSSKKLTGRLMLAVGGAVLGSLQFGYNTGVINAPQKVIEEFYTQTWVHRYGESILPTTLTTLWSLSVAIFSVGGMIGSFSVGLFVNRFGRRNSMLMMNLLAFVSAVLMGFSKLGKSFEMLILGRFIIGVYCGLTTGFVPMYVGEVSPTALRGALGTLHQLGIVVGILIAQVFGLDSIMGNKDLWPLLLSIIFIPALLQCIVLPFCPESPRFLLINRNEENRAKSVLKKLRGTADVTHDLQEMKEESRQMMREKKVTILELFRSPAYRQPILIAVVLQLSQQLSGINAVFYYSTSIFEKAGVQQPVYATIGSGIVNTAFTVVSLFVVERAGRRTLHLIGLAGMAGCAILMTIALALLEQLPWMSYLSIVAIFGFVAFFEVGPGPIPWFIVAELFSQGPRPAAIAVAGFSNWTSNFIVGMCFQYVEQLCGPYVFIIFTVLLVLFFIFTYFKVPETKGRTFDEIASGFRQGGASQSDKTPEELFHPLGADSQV
# Protocol: (§1) All mutants were generated by standard PCR-based strategy.
# (§2) All counterflow assays were performed at 25 °C. […] Liposome without protein was used as negative control.
# (§3) All experiments were repeated at least three times.
# human GLUT3(N43T) = target: T2, human GLUT3(N43T) (Homo sapiens, UniProt P11169, N43T); assay: as above; format: biochemical; settings: 100 μM inhibitor; for Figure S1d: transport activity in presence of inhibitor (value1-3): three independent experiments, 100 µM
# T2 construct: His10 (N); made in house; host or cells: Sf9 insect cells (baculovirus)
# T2 sequence (P11169 1-496 N43T): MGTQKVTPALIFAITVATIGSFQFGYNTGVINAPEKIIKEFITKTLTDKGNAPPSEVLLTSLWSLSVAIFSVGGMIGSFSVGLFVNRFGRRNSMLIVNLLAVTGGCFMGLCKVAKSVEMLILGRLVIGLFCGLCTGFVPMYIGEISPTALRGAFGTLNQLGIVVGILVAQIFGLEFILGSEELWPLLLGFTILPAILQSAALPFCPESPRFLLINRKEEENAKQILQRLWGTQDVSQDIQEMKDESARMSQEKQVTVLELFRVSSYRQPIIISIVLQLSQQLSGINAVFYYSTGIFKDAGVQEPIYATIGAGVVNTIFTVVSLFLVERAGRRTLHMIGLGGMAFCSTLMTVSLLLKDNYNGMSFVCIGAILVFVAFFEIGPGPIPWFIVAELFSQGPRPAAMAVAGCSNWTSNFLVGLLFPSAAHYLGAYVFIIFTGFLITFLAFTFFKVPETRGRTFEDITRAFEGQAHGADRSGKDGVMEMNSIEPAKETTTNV
# Protocol: as §1, §2, §3
# [2] = target: E. coli (strain O157:H7) D-xylose:proton symporter XylE (Escherichia coli O157:H7, UniProt P0AGF5); settings: 100 µM
# Chain of E. coli (strain O157:H7) D-xylose:proton symporter XylE (P0AGF5 whole entry, the tested form may be a part): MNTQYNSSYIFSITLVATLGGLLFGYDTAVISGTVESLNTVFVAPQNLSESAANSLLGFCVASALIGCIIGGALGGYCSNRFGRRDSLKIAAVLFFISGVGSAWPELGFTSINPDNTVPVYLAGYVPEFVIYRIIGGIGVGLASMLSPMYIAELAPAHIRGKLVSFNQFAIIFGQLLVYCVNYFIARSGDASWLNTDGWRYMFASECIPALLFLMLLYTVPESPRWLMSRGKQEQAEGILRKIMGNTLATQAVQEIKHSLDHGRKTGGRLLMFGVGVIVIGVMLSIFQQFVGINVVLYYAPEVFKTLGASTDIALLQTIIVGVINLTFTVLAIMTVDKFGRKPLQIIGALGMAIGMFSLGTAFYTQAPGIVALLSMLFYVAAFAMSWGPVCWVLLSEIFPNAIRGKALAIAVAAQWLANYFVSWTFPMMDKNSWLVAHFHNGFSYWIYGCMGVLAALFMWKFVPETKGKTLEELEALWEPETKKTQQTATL
# Protocol: The recombinant human glucose transporter GLUT1(N45T) and E. coli (strain O157:H7) D-xylose:proton symporter XylE were expressed and purified as described previously[17],[26]. […] In brief, the cDNA of human GLUT3 was cloned into a modified pFastBac vector (Invitrogen) fused with an N-terminal His10 tag. All mutants were generated by standard PCR-based strategy.
# E. coli polar lipids (Avanti) were dissolved, dried, and resuspended to a final concentration of 20 mg/ml with the KPM 6.5 buffer (50 mM potassium phosphate, 2 mM MgSO4; pH 6.5) supplemented with 50 mM D-glucose or xylose (Sigma). After freeze-and-thaw with liquid nitrogen, the liposomes were extruded through 0.4 μm polycarbonate membranes (Millipore) and incubated with 1% n-octyl-β-d-glucoside (β-OG; Anatrace) at 4 °C for 30 min. Purified protein was incubated with liposomes at a ratio of ~1:100 (w/w) for 60 min. Then β-OG was removed by incubating with Bio-Beads SM2 (Bio-Rad) overnight. The proteoliposomes were subject to freeze-and-thaw again and extruded through 0.4 μm polycarbonate membranes. The homogenized proteoliposomes were ultracentrifuged at 100,000 g at 4 °C for 1 h and rinsed twice with the ice cold KPM 6.5 buffer. Finally, the proteoliposomes were resuspended in the KPM 6.5 buffer to a final concentration of 100 mg/ml (phospholipids).
# All counterflow assays were performed at 25 °C. For each assay, an aliquot of 2 μl proteoliposomes was added into 98 μl KPM 6.5 buffer plus 1 μCi D-[2-^3H] glucose (specific radioactivity 23.4 Ci/mmol, PerkinElmer) or D-[^3H] xylose (20 Ci/mmol, American Radiolabeled Chemicals, Inc.). The final concentrations of the external D-[2-^3H] glucose and D-[^3H] xylose were 0.42 μM and 0.5 μM, respectively. Uptake of radio-labeled substrates was terminated at 30 s by rapidly filtering the solution through 0.22 μm GSTF filters (Millipore) and washed with 2.5 ml KPM 6.5 buffer. The filter was solubilized with 0.5 ml Optiphase HISAFE 3 (PerkinElmer) for 30 min for liquid scintillation counting with MicroBeta JET (PerkinElmer). Liposome without protein was used as negative control.
# For inhibition assays, an aliquot of 2 μL proteoliposome pre-incubated with 100 μM indicated inhibitors for 0.5 h on ice was added to 98 μL KPM buffer containing 1 μCi D-[2-^3H]-glucose or D-[^3H] xylose with 100 μM inhibitors. To determine the IC50 of the inhibitor, a series of concentrations of the inhibitor was applied as indicated.
# All experiments were repeated at least three times. Data for liposome-based counterflow assay were analyzed using GraphPad Prism 6.
Compound,Inhibition of glucose uptake [1],Figure S1c: transport activity in presence of inhibitor (value1-3) [1],Inhibition of glucose uptake (human GLUT3(N43T)),Figure S1d: transport activity in presence of inhibitor (value1-3) (human GLUT3(N43T)),Figure S1b: transport activity in presence of inhibitor (value1-3) [2]
C#CCCC(=O)Nc1cccc(COc2c(Cl)cc(C(=O)OC3C(OC)OC(CO)C(O)C3O)cc2OC)c1 (stereo not drawn) [SA3],mildly inhibited,52.3152 and 50.1788 and 49.4073,mildly inhibited,34.7779 and 38.4924 and 41.7666,88.5699 and 92.3449 and 87.2521
COc1c(Cl)c(OCc2ccccc2)c(Cl)c(C)c1C(=O)OC1C(OC)OC(CO)C(O)C1O (stereo not drawn) [SA4],almost completely abolished,12.2388 and 8.7146 and 10.3352,almost completely abolished,6.3677 and 8.1365 and 7.922,106.928 and 95.1823 and 98.9097
CCOC(=O)c1c(C)c(Cl)c(OC(=O)c2c(C)c(Cl)c(O)c(Cl)c2OC)c(Cl)c1OC [SA5],,101.106 and 93.647 and 95.1991,,105.451 and 87.0011 and 100.662,86.3087 and 90.0117 and 94.9979
COc1ccccc1N1CCN(c2ncnc3c2cnn3-c2cccc(CN)c2)CC1 [SA6],almost completely abolished,5.6059 and 7.7469 and 6.8521,almost completely abolished,8.1554 and 7.7188 and 4.7344,95.2845 and 101.756 and 111.538
